Test results reported in patent publication US20080269213A1, “8-Hydroxyquinoline compounds and methods thereof” (Wyeth, priority 2006, published 2008).
Where “and” joins values, the source holds several entries; their conditions need not be identical. Equal entries are not always repeated. Where two headings read alike, the source gives them in different places.

Experiments:
Agg-1 = molecular target: T1, Agg-1 (Homo sapiens, UniProt O75173); test: Agg-1 FRET assay; format: biochemical; conditions: for inhibition at 22.2 µM: @ 22200 nM; for inhibition at 20 µM: @ 20000 nM; for inhibition at 66.7 µM: @ 66700 nM
T1 sequence (O75173 213-837): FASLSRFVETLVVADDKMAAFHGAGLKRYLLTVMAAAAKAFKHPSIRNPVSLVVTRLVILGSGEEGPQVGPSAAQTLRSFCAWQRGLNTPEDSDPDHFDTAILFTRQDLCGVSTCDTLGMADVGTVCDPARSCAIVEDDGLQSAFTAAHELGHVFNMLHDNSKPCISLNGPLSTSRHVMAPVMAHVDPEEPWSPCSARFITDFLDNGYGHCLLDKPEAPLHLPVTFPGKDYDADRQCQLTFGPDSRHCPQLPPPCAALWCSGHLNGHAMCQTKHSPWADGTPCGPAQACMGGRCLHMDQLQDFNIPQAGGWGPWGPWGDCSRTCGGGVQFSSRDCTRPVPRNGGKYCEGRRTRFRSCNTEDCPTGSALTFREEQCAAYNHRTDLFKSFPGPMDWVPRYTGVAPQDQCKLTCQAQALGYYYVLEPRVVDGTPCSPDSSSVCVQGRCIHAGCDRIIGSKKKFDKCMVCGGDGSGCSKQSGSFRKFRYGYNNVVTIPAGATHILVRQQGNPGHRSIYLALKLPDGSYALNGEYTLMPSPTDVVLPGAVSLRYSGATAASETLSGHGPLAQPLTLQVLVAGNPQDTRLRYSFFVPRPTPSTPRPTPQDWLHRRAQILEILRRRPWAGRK
Source text: The Agg-1/Agg-2 FRET data for N-[(8-hydroxyquinolin-2-yl)(phenyl)methyl]-2-phenoxyacetamide and 2-{[(phenoxyacetyl)amino](phenyl)methyl}quinolin-8-yl phenoxyacetate is presented in Table 1.

[1] = molecular target: T2, recombinant human Aggrecanase-2 Agg2-Phe628 (Homo sapiens, UniProt Q9UNA0); test: Aggrecanase 2 in vitro enzyme assay (Agg-2 FRET, quenched fluorescent peptide substrate); format: biochemical; parameters: purified recombinant human Aggrecanase-2 Agg2-Phe628 (MW=41,737); This is a truncated form of full-length human aggrecanase-2; made in house; host or cells: CHO cells; conditions: for inhibition at […]: @ 2500 nM
T2 sequence (Q9UNA0 262-628 limits assumed): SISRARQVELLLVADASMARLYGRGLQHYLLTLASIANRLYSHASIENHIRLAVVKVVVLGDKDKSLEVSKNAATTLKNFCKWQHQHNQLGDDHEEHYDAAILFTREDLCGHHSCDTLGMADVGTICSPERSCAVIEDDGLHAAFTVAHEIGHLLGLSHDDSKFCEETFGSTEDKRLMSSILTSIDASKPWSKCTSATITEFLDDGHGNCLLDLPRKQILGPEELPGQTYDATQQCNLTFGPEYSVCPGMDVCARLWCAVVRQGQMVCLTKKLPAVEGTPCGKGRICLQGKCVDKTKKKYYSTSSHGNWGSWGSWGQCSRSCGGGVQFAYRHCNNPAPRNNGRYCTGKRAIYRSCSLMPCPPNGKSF
Method in brief: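 Kinetic fluorescence (λex 340, λem 420 nm) monitored over 40 min at 30 °C after adding 25 μM final Abz/Dnp brevican-based quenched peptide. Enzyme: recombinant truncated human Agg2-Phe628 from CHO, 0.5 μg/ml final, mixed with inhibitor first; buffer HEPES pH 7.5 with NaCl, CaCl2, CHAPS, glycerol; compounds in duplicate.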

[2] = read-out: Agg-2 FRET Median IC50
[3] = read-out: Agg-1 IC50 (μM) or % Inhibition
[4] = IC50, read-out: Agg-2 IC50 (μM) or % Inhibition

## Nc1cc(C(NC(=O)COc2ccccc2)c2ccccc2)c(O)c2ncccc12 (centres unmarked) [N-[(5-amino-8-hydroxyquinolin-7-yl)(phenyl)methyl]-2-phenoxyacetamide]
Agg-1; read-out: Agg1 %
  inhibition at 22.2 µM: 57%
[1]; @ 22200 nM
  inhibition at 22.2 µM: 50%

## O=C(COc1ccccc1)NC(c1cc(Cl)c2cccnc2c1O)c1cccc2ncccc12 (centres unmarked) [N-[(5-chloro-8-hydroxyquinolin-7-yl)(quinolin-5-yl)methyl]-2-phenoxyacetamide]
Agg-1; @ 22000 nM, read-out: Agg1 %
  inhibition at 22 µM: 46%
[1]; read-out: Agg2 IC50
  IC50: 3.5 µM
[1]; [2]
  IC50: 3.52 µM

## O=C(COc1ccccc1)NC(Cc1cc(Cl)c2cccnc2c1O)c1ccc2c(c1)OCO2 (centres unmarked)
Agg-1; [3]
  inhibition at 22 µM: 67%
[1]; [4]
  IC50: 9.6 µM

## O=C(CCl)NC(c1ccccc1)c1cc(Br)c2cccnc2c1O (centres unmarked) [N-[(5-bromo-8-hydroxyquinolin-7-yl)(phenyl)methyl]-2-chloroacetamide]
Agg-1; read-out: Agg1 IC50
  IC50: 22 to 67 µM
[1]; read-out: Agg2 IC50
  IC50: 5.4 µM

## O=C(Cc1ccccc1)NC(/C=C/c1ccccc1)c1cc(Cl)c2cccnc2c1O (centres unmarked) [N-[(2E)-1-(5-chloro-8-hydroxyquinolin-7-yl)-3-phenylprop-2-en-1-yl]-2-phenylacetamide]
Agg-1; read-out: Agg1 %
  inhibition at 20 µM: 45%
[1]; read-out: Agg2 IC50
  IC50: 50 µM
[1]; [2]
  IC50: 50 µM

## O=C(COc1ccccc1)NC(c1ccccc1)c1cc(Br)c2cccnc2c1O (centres unmarked) [N-[(5-bromo-8-hydroxyquinolin-7-yl)(phenyl)methyl]-2-phenoxyacetamide]
Agg-1; read-out: Agg1 %
  inhibition at 22.2 µM: 64%
[1]; read-out: Agg2 IC50
  IC50: 2.48 µM
[1]; [2]
  IC50: 2.48 µM

## O=C(COc1ccccc1)NC(c1ccccc1Cl)c1cc(Cl)c2cccnc2c1O (centres unmarked) [N-[(5-chloro-8-hydroxyquinolin-7-yl)(2-chlorophenyl)methyl]-2-phenoxyacetamide]
Agg-1; read-out: Agg1 IC50
  IC50: > 22 µM
[1]; read-out: Agg2 IC50
  IC50: 1.55 µM
[1]; [2]
  IC50: 1.55 µM and 0.35 µM

## COc1cccc(C(NC(=O)COc2ccccc2)c2cc(Cl)c3cccnc3c2O)c1 (centres unmarked) [Example 126, N-[(5-chloro-8-hydroxyquinolin-7-yl)(3-methoxyphenyl)methyl]-2-phenoxyacetamide]
Agg-1; @ 22000 nM, read-out: Agg1 %
  inhibition at 22 µM: 44%
[1]; read-out: Agg2 IC50
  IC50: 1.8 µM

## CC1(C)CCc2cc(C(NC(=O)COc3ccccc3)c3cc(Cl)c4cccnc4c3O)ccc2O1 (centres unmarked) [Example 171, N-[(5-chloro-8-hydroxyquinolin-7-yl)(2,2-dimethyl-3,4-dihydro-2H-chromen-6-yl)methyl]-2-phenoxyacetamide]
Agg-1; read-out: Agg1 %
  inhibition at 66.7 µM: 55%
[1]; read-out: Agg2 IC50
  IC50: 1.4 µM

## CCCCOc1ccc(C(NC(=O)COc2ccccc2)c2cc(Cl)c3cccnc3c2O)cc1 (centres unmarked) [N-[(4-butoxyphenyl)(5-chloro-8-hydroxyquinolin-7-yl)methyl]-2-phenoxyacetamide]
Agg-1; @ 67000 nM, read-out: Agg1 %
  inhibition at 67 µM: 50%
[1]
  inhibition at […]: 55%

## Cc1ccsc1C(NC(=O)Cc1ccccc1)c1cc(Cl)c2cccnc2c1O (centres unmarked) [N-[(5-chloro-8-hydroxyquinolin-7-yl)(3-methyl-2-thienyl)methyl]-2-phenylacetamide]
Agg-1; read-out: Agg1 %
  inhibition at 20 µM: 52%
[1]; read-out: Agg2 IC50
  IC50: 2.54 µM
[1]; [2]
  IC50: 2.54 µM

## O=C(COc1ccc(Br)cc1)NC(c1ccccc1Cl)c1cc(Cl)c2cccnc2c1O (centres unmarked) [Example 220, 2-(4-bromophenoxy)-N-[(5-chloro-8-hydroxyquinolin-7-yl)(2-chlorophenyl)methyl]acetamide]
Agg-1; read-out: Agg1 IC50
  IC50: 22 to 67 µM
[1]; read-out: Agg2 IC50
  IC50: 2.4 µM

## O=C(COc1ccccc1)NC(c1ccc(-c2csnn2)cc1)c1cc(Cl)c2cccnc2c1O (centres unmarked) [Example 147, N-{(5-chloro-8-hydroxyquinolin-7-yl)[4-(1,2,3-thiadiazol-4-yl)phenyl]methyl}-2-phenoxyacetamide]
Agg-1; read-out: Agg1 IC50
  IC50: 4.68 µM
[1]; read-out: Agg2 IC50
  IC50: 1.07 µM
[1]; [2]
  IC50: 1.07 µM

## O=C(COc1ccccc1)NC(c1cccc(Oc2ccccc2)c1)c1cc(Cl)c2cccnc2c1O (centres unmarked) [Example 131, N-[(5-chloro-8-hydroxyquinolin-7-yl)(3-phenoxyphenyl)methyl]-2-phenoxyacetamide]
Agg-1; read-out: Agg1 IC50
  IC50: > 67 µM
[1]; read-out: Agg2 IC50
  IC50: 4.1 µM

## CC(C)C(=O)NC(Cc1cc(Cl)c2cccnc2c1O)c1ccc(CN(C)C)o1 (centres unmarked)
Agg-1; [3]
  inhibition at 200 µM: 56%
[1]; read-out: Agg-2 IC50 (μM) or % Inhibition
  inhibition at 200 µM: 49%

## O=C(COc1ccccc1)NC(c1cc(Cl)c2cccnc2c1O)c1coc2ccccc2c1=O (centres unmarked) [N-[(5-chloro-8-hydroxyquinolin-7-yl)(4-oxo-4H-chromen-3-yl)methyl]-2-phenoxyacetamide]
Agg-1; read-out: Agg1 IC50
  IC50: ~11 µM
[1]
  inhibition at […]: 72%

## CCc1cccc(OCC(=O)NC(c2ccccc2Cl)c2cc(Cl)c3cccnc3c2O)c1 (centres unmarked) [N-[(5-chloro-8-hydroxyquinolin-7-yl)(2-chlorophenyl)methyl]-2-(3-ethylphenoxy)acetamide]
Agg-1; @ 10000 nM, read-out: Agg1 %
  inhibition at 10 µM: 48%
[1]; read-out: Agg2 IC50
  IC50: 1.28 µM

## O=C(COc1ccccc1)NC(c1ccc(OCc2ccccc2)cc1)c1cc(Cl)c2cccnc2c1O (centres unmarked) [N-[[4-(benzyloxy)phenyl](5-chloro-8-hydroxyquinolin-7-yl)methyl]-2-phenoxyacetamide]
Agg-1; read-out: Agg1 IC50
  IC50: > 67 µM
[1]; read-out: Agg2 IC50
  IC50: 4.4 µM

## O=C(COc1ccccc1)NC(c1ccccc1)c1ccc2cccc(OC(=O)COc3ccccc3)c2n1 (centres unmarked) [Example 277, 2-{[(phenoxyacetyl)amino](phenyl)methyl}quinolin-8-yl phenoxyacetate]
Agg-1; read-out: FRET IC50 Agg-1
  IC50: 4 µM
[1]; @ 200 (μM), read-out: Agg-2 FRET % (printed in FRET IC50 column)
  inhibition at 200 µM: 52%

## CCCCN(CCCC)c1ccc(C(NC(=O)COc2ccccc2)c2cc(Cl)c3cccnc3c2O)cc1 (centres unmarked) [Example 136, N-{(5-chloro-8-hydroxyquinolin-7-yl)[4-(dibutylamino)phenyl]methyl}-2-phenoxyacetamide]
Agg-1; read-out: Agg1 %
  inhibition at 66.7 µM: 40%
[1]; @ 33300 nM
  inhibition at 33.3 µM: 52%

## O=C(CNCc1cccc2ccccc12)NC(c1ccccc1)c1cc(Cl)c2cccnc2c1O (centres unmarked) [Example 224, N-[(5-chloro-8-hydroxyquinolin-7-yl)(phenyl)methyl]-N2-(1-naphthylmethyl)glycinamide]
Agg-1; read-out: Agg1 IC50
  IC50: 17.5 µM
[1]; read-out: Agg2 IC50
  IC50: 1.56 µM
[1]; [2]
  IC50: 1.56 µM

## O=C(CNCc1ccccc1)NC(c1ccccc1)c1cc(Cl)c2cccnc2c1O (centres unmarked) [Example 223, N2-benzyl-N-[(5-chloro-8-hydroxyquinolin-7-yl)(phenyl)methyl]glycinamide]
Agg-1; read-out: Agg1 IC50
  IC50: > 20 µM
[1]; read-out: Agg2 IC50
  IC50: 3.75 µM
[1]; [2]
  IC50: 3.75 µM

## O=C(COc1ccccc1)NC(Cc1cc(Cl)c2cccnc2c1O)c1cccc(CN2CCCC2)c1 (centres unmarked)
Agg-1; [3]
  inhibition at 200 µM: 56%
[1]; [4]
  IC50: 20 µM

## COc1ccc(C(NC(=O)COc2ccccc2)c2cc(Cl)c3cccnc3c2O)cc1OCc1ccccc1 (centres unmarked) [N-[[3-(benzyloxy)-4-methoxyphenyl](5-chloro-8-hydroxyquinolin-7-yl)methyl]-2-phenoxyacetamide]
Agg-1; @ 7500 nM, read-out: Agg1 %
  inhibition at 7.5 µM: 54%
[1]; read-out: Agg2 IC50
  IC50: 1.04 µM

## CNCC(=O)Nc1cccc(C(NC(=O)COc2ccccc2)c2cc(Cl)c3cccnc3c2O)c1 (centres unmarked) [Example 207, N-(3-{(5-chloro-8-hydroxyquinolin-7-yl)[(phenoxyacetyl)amino]methyl}phenyl)-N-2-methylglycinamide]
Agg-1; read-out: Agg1 IC50
  IC50: 22 to 67 µM
[1]; read-out: Agg2 IC50
  IC50: 3.5 µM

## CO/C(=C\c1ccccc1)C(NC(=O)COc1ccccc1)c1cc(Cl)c2cccnc2c1O (centres unmarked) [N-[(2Z)-1-(5-chloro-8-hydroxyquinolin-7-yl)-2-methoxy-3-phenylprop-2-en-1-yl]-2-phenoxyacetamide]
Agg-1; @ 11000 nM, read-out: Agg1 %
  inhibition at 11 µM: 47%
[1]
  inhibition at […]: 50%

## CCCc1ccc(OCC(=O)NC(c2ccccc2Cl)c2cc(Cl)c3cccnc3c2O)cc1 (centres unmarked) [N-[(5-chloro-8-hydroxyquinolin-7-yl)(2-chlorophenyl)methyl]-2-(4-propylphenoxy)acetamide]
Agg-1; @ 1100 nM, read-out: Agg1 %
  inhibition at […]: 44%
[1]
  inhibition at […]: 47%
